Measured values reported in the OligoGym collection.
These antisense oligonucleotides have a phosphorothioate backbone; sugars and methylation of C are not fully specified.
Note: test concentration or dose not given here.

Each sequence was assayed against ABCB1. Details: ASO.
AAAAGTTCTTCTTTGCTGCT was tested, and the remaining target (mRNA or protein) (fraction of control) was 0.92. ACTGACAGTTGGTTTCTTT was tested, and the remaining target (mRNA or protein) (fraction of control) was 0.84. ACTTTTATTGTTCAGTTTAAA showed a remaining target (mRNA or protein) (fraction of control) of 0.97. In the case of AGTTCTTCTTTGCTGCTCCA, the remaining target (mRNA or protein) (fraction of control) is reported as 0.7. ATACTGACAGTTGGTTTCT was tested, and the remaining target (mRNA or protein) (fraction of control) was 0.65. With CATCCCGACCTCGCGCTCCT the remaining target (mRNA or protein) (fraction of control) was 0. In the case of CCCGACCTCGCGCTCCTTGG, the remaining target (mRNA or protein) (fraction of control) is reported as 0.15. Sequence CGCGTCCTTGGAACGGCCAC has a remaining target (mRNA or protein) (fraction of control) of 0.15. CGGTCCCCTTCAAGATCCAT showed a remaining target (mRNA or protein) (fraction of control) of 0. For CGTCCTTGGAACGGCCACCA, the remaining target (mRNA or protein) (fraction of control) was 0.18. GACCTCGCGCTCCTTGGAAC gave a remaining target (mRNA or protein) (fraction of control) of 0.17. GAGCTTGGAAGAGCCGCTACT was tested, and the remaining target (mRNA or protein) (fraction of control) was 0.54. With TACTCCGACTTTAGTGGAAA the remaining target (mRNA or protein) (fraction of control) was 0.84. Sequence TCCCCTTCAAGATCCATCCC has a remaining target (mRNA or protein) (fraction of control) of 0.2. In the case of TCCGACTTTAGTGGAAAGAC, the remaining target (mRNA or protein) (fraction of control) is reported as 0.9. TCTTCTTTGCTCCTCCATTG was tested, and the remaining target (mRNA or protein) (fraction of control) was 0.67. TGACAGTTGGTTTCTTTCC was tested, and the remaining target (mRNA or protein) (fraction of control) was 0.85. TTGAGCTTGGAAGAGCCGCTA showed a remaining target (mRNA or protein) (fraction of control) of 0.54. TTGCGGTCCCCTTCAAGATC showed a remaining target (mRNA or protein) (fraction of control) of 0.09. Work on TTTTATTGTTCAGTTTAAAAA yielded a remaining target (mRNA or protein) (fraction of control) of 0.92.

These sequences were tested against ABCC1. Details: ASO.
With ACCGGATGGCGGTGGCTGCT the remaining target (mRNA or protein) (fraction of control) was 0.73. Sequence AGCCCCGGAGCGCCATGCCG has a remaining target (mRNA or protein) (fraction of control) of 0.74. AGGCCCTGCAGTTCTGACCA gave a remaining target (mRNA or protein) (fraction of control) of 0.95. With CAGGAGGTCCGATGGGGCGC the remaining target (mRNA or protein) (fraction of control) was 0.95. CCGGTGGCGCGGGCGGCGGC gave a remaining target (mRNA or protein) (fraction of control) of 0.69. CGCATCTCTGTCTCTCCTGG gave a remaining target (mRNA or protein) (fraction of control) of 0.77. CGCGCTGCTTCTGGCCCCCA gave a remaining target (mRNA or protein) (fraction of control) of 0.56. Work on CGGGGCCGCAACGCCGCCTG yielded a remaining target (mRNA or protein) (fraction of control) of 0.95. With CTCCTCCCTGGGCGCTGGCA the remaining target (mRNA or protein) (fraction of control) was 0.74. Work on GCGGCGATGGGCGTGGCCAG yielded a remaining target (mRNA or protein) (fraction of control) of 0.73. For GCTCACACCAAGCCGGCGTC, the remaining target (mRNA or protein) (fraction of control) was 0.78. Sequence GGCACCCACACGAGGACCGT has a remaining target (mRNA or protein) (fraction of control) of 0.79. Work on GGTGATCGGGCCCGGTTGCT yielded a remaining target (mRNA or protein) (fraction of control) of 0.68. Sequence TCGGAGCCATCGGCGCTGCA has a remaining target (mRNA or protein) (fraction of control) of 0.8. With TGCTGTTCGTGCCCCCGCCG the remaining target (mRNA or protein) (fraction of control) was 0.51.

Each sequence was assayed against Agtr1a (rat). Details: ASO.
In the case of CTGGCGTAGAGGTTGAAGCT, the remaining target (mRNA or protein) (fraction of control) is reported as 0.41. GATGGTGATGGGCATGGCAG gave a remaining target (mRNA or protein) (fraction of control) of 0.32. For GCAGAAGAGTTAAGGGCCAT, the remaining target (mRNA or protein) (fraction of control) was 0.32. GCGGTCGATGCTGAGACACG showed a remaining target (mRNA or protein) (fraction of control) of 0.35. Work on GGATGCGGTCGATGCTGAGA yielded a remaining target (mRNA or protein) (fraction of control) of 0.39. GGCGTAGAGGTTGAAGCTCA gave a remaining target (mRNA or protein) (fraction of control) of 0.27. In the case of GGGAGCGTCGAATTCCGAGA, the remaining target (mRNA or protein) (fraction of control) is reported as 0.21. With GGGTTCAGGCAGTTGTTAAA the remaining target (mRNA or protein) (fraction of control) was 0.29. With GGTATAGCTGGTGAGAATGAT the remaining target (mRNA or protein) (fraction of control) was 0.46. For GGTCGATGCTGAGACACGTG, the remaining target (mRNA or protein) (fraction of control) was 0.49. GTCGAATTCCGAGACTCATA showed a remaining target (mRNA or protein) (fraction of control) of 0.25. Sequence GTGATGGGCATGGCAGTGTC has a remaining target (mRNA or protein) (fraction of control) of 0.29. Work on TAAAGGGTATAGCTGGTGAGA yielded a remaining target (mRNA or protein) (fraction of control) of 0.35. With TGGTGATGGGCATGGCAGTG the remaining target (mRNA or protein) (fraction of control) was 0.21. Sequence TTCAGGCAGTTGTTAAAATA has a remaining target (mRNA or protein) (fraction of control) of 0.86.

These sequences were tested against IGF2. Details: ASO.
ACCGCGCTTTCCTCCCGCCG showed a remaining target (mRNA or protein) (fraction of control) of 0.53. Sequence AGCCCCAGCGACCCCAGCGT has a remaining target (mRNA or protein) (fraction of control) of at least 1. CCCACCTCCATCACCATGGC showed a remaining target (mRNA or protein) (fraction of control) of 0.52. CGATCTTGTGCGGTGTCCTG showed a remaining target (mRNA or protein) (fraction of control) of 0.86. CGCGCATGTCATCGGGAATG showed a remaining target (mRNA or protein) (fraction of control) of 0.31. CTCTTCTGCCCTGTTTTGTC was tested, and the remaining target (mRNA or protein) (fraction of control) was 0.31. GGAACTCAGTGGAACTCAGG showed a remaining target (mRNA or protein) (fraction of control) of 0.11. GTGAAGGCAGACCACCGACC showed a remaining target (mRNA or protein) (fraction of control) of 0.27. Sequence TAAATAAGGACCAGCTCCCA has a remaining target (mRNA or protein) (fraction of control) of 0.41. TACAAGATAGTACAGTACGC gave a remaining target (mRNA or protein) (fraction of control) of 0.33. TCACCATGGCCAGCCCCAGC showed a remaining target (mRNA or protein) (fraction of control) of 0.81.

Each sequence was assayed against IL11. Details: ASO.
TTGGACGGACGGCCGTGGAG gave a remaining target (mRNA or protein) (fraction of control) of 0.75.

The sequences below were run against PRKCA. Details: ASO.
With AAAACGTCAGCCATGGTCCC the remaining target (mRNA or protein) (fraction of control) was 0.39. Work on AAGAGAGAGACCCTGAACAG yielded a remaining target (mRNA or protein) (fraction of control) of 0.62. Sequence AGCCGTGGCCTTAAAATTTT has a remaining target (mRNA or protein) (fraction of control) of 0.84. Sequence AGTCGGTGCAGTGGCTGGAG has a remaining target (mRNA or protein) (fraction of control) of 0.88. ATGGGGTGCACAAACTGGGG gave a remaining target (mRNA or protein) (fraction of control) of 0.94. ATTTTCAGGCCTCCATATGG showed a remaining target (mRNA or protein) (fraction of control) of 0.82. CACTGCGGGGAGGGCTGGGG gave a remaining target (mRNA or protein) (fraction of control) of at least 1. CCCCAACCACCTCTTGCTCC was tested, and the remaining target (mRNA or protein) (fraction of control) was 0.39. With CCCGGGAAAACGTCAGCCAT the remaining target (mRNA or protein) (fraction of control) was 0.52. With CGCCGTGGAGTCGTTGCCCG the remaining target (mRNA or protein) (fraction of control) was 0.54. Work on CTGCCTCAGCGCCCCTTTGC yielded a remaining target (mRNA or protein) (fraction of control) of 0.47. Sequence GAGACCCTGAACAGTTGATC has a remaining target (mRNA or protein) (fraction of control) of 0.61. GATAATGTTCTTGGTTGTAA showed a remaining target (mRNA or protein) (fraction of control) of 0.85. GCAGAGGCTGGGGACATTGA gave a remaining target (mRNA or protein) (fraction of control) of 0.81. For GGATTCACTTCCACTGCGGG, the remaining target (mRNA or protein) (fraction of control) was 0.82. GGGCTGGGGAGGTGTTTGTT showed a remaining target (mRNA or protein) (fraction of control) of 0.95. GTCAGCCATGGTCCCCCCCC showed a remaining target (mRNA or protein) (fraction of control) of 0.46. GTTCTCGCTGGTGAGTTTCA was tested, and the remaining target (mRNA or protein) (fraction of control) was 0.52. Work on TCAAATGGAGGCTGCCCGGC yielded a remaining target (mRNA or protein) (fraction of control) of 0.66. In the case of TGGAATCAGACACAAGCCGT, the remaining target (mRNA or protein) (fraction of control) is reported as 0.89.
